The values that follow come from publication PMC8151276, “An Integrated Approach toward NanoBRET Tracers for Analysis of GPCR Ligand Engagement” (Molecules, 2021).

Holding throughout (assay type): binding
In one test the target is T1, TBXA2R (Homo sapiens, UniProt P21731).
T1 construct: purchased Promega (in-house HiBiT-GPCR construct library, NanoBRET)
T1 sequence (P21731 1-343): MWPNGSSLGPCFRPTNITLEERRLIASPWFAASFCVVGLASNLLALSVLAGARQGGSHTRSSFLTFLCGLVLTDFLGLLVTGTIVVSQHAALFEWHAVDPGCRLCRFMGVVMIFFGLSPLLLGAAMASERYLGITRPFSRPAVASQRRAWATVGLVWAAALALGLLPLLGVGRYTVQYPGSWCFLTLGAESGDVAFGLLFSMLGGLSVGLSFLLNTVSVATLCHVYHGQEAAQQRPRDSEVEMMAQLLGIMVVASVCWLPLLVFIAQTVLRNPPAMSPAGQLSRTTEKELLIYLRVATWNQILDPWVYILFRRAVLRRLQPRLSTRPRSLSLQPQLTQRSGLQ
In words: NanoBRET screen HiBiT-TBXA2R in HEK293. As to the method:
(§1) Each tracer candidate was screened across the entire library of HiBiT-GPCR constructs using NanoBRET as the detection modality. As depicted in Figure 4A, the specificity of interactions was evaluated through decrease in BRET due to competitive displacement of a bound tracer by excess parental compound. Each tracer was analyzed for binding to each HiBiT-GPCR fusion in the absence and in the presence of competing parental compound. Briefly, HEK293 cells were transfected with HiBiT-GPCR constructs diluted into promoterless DNA to reduce expression and maximize translocation to the cell surface. Each tracer candidate was then screened at concentrations of 1 μM and 0.1 μM across cells expressing these fusions. Cells were treated for 1.5 h with tracer either alone or in the presence of 20 μM competing parental compound (i.e., control). BRET was measured upon addition of purified LgBiT and subsequent complementation with HiBiT genetically fused to a GPCR. The specificity of interactions was assessed through a decrease in BRET signal due to competitive displacement of the bound tracer. To further gauge the robustness of these interactions, the fold response over the control (i.e., BRETtracer/BRETcontrol) was calculated. We chose a 1.5-fold response, which translates to ≥7-fold signal over noise as the minimal threshold required to score an interaction as positive. […]. Below we highlight the screening results obtained for our exemplary fluorescent tracers based on Clozapine, Amitriptyline and AZD1283.
(§2) HiBiT-GPCR DNA constructs were diluted in 10 mM Tris pH 8 to a final concentration of 0.01 μg/μL, arrayed in 96-well plates and stored at −20 °C. For transfection, HEK293 cells were suspended in Opti-MEM (without phenol red) supplemented with 2% fetal bovine serum (Seradigm) and 100 units/mL penicillin–streptomycin (Gibco) at a final concentration of 220,000 cells/mL and dispensed into white 96-well plates at 90 μL/well. Subsequent transfections and screens were carried using an Agilent Bravo Automated Liquid Handling Platform. First, the 96-well HiBiT DNA arrays were diluted 25-fold in Opti-MEM (without serum or phenol red) to a final concentration of 0.0004 μg/μL and 20 μL of the diluted DNAs were transferred into new 96-well plates. Next, promoterless carrier DNA (1 μg/μL) was diluted 25-fold (0.04 μg/μL) and then dispensed into the diluted arrays at 20 μL/well. Following brief mixing, Viafect transfection reagent (Promega) diluted 16-fold into Opti-MEM was dispensed into the plates at 40 μL/well. After mixing by pipetting, plates were incubated for 10 min on the pipetting station deck. The DNA-transfection reagent complexes were then added to plates containing cells. To facilitate the screen, 10 μL of DNA-transfection reagent complexes were added in duplicates to the top 4 and bottom 4 rows, resulting in two identical 48-well arrays per plate. Plates with transfected cells were incubated for 18–20 h at 37 °C/5% CO2. A screen of each tracer across the entire library using two different concentrations requires duplicate plates of transfected cells. Depending on the number of tracers being screened, transfections can be scaled up using the same ratios. The next day, for each tracer, four 20× screening solutions in tracer dilution buffer (Promega) were prepared: two duplicates at final concentration of 20 μM and two duplicates at a final concentration of 2 μM. A competing unmodified compound was added to one of each duplicate at a final concentration of 400 μM. The four resulting solutions were diluted 4-fold in Opti-MEM without serum or phenol red to generate 5× solutions (5 µM and 0.5 µM tracer +/− 100 μM competing compound). To screen the library, a BioTek MultiFlo FX liquid dispenser was used to dispense 22.5 µL of tracer solution to the top 4 rows and 22.5 µL tracer + competing compound solution to the 4 bottom rows. Plates were briefly mixed on an orbital shaker and incubated for 1.5 h at room temperature. […]

For a further test, the target named is T2, CCR9 (Homo sapiens, UniProt P51686).
T2 construct: purchased Promega (in-house HiBiT-GPCR construct library, NanoBRET)
T2 sequence (P51686 1-369): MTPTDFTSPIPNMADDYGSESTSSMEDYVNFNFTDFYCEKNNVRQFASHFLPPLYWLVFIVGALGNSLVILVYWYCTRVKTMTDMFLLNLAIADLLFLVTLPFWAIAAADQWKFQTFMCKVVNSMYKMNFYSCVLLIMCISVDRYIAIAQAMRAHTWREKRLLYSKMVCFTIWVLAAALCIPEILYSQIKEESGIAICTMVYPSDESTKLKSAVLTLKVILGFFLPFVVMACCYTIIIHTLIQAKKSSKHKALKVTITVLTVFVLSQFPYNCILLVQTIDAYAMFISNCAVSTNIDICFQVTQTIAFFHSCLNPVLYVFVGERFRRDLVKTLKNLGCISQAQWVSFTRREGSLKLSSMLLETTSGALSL
In words: NanoBRET screen HiBiT-CCR9 in HEK293. As to the method: as §1, §2
On the technique in general: Bioluminescence resonance energy transfer reports proximity on the nanometre scale.

The target of a further test is T3, P2RY13 (Homo sapiens, UniProt Q9BPV8).
T3 construct: purchased Promega (in-house HiBiT-GPCR construct library, NanoBRET)
T3 sequence (Q9BPV8 1-354): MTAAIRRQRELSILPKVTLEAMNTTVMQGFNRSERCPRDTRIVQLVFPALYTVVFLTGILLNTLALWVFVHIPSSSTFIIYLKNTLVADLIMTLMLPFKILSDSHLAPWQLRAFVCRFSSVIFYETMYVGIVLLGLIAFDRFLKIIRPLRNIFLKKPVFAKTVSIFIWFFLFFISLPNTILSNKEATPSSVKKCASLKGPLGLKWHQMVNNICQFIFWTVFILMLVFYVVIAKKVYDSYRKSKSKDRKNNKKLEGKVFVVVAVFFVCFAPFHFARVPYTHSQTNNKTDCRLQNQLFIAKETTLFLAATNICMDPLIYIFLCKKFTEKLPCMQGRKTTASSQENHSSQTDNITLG
In words: NanoBRET screen HiBiT-P2RY13 in HEK293. As to the method: as §1, §2

Where [1] appears, read: tracer at 0.1μM, listed as amitriptyline-b-2-NB590.
Where [2] appears, read: tracer at 1μM, listed as amitriptyline-b-2-NB590.

Turning to `COc1ccc2[nH]c(-c3ccc(CNC(=O)CCOCCOCCOCCOCCNC(=O)CCc4ccc5n4[B-](F)(F)[N+]4=C(c6ccc[nH]6)C=CC4=C5)cc3)c(CCNC(C)=O)c2n1` [AzomelatoninICO9-2-NB590], the “NanoBRET Fold Response” value on TBXA2R (0.1μM tracer) is 1.27; on TBXA2R (1μM tracer), 0.99; at CCR9 (0.1μM tracer) it was 0.97; on CCR9 (1μM tracer) it was 0.89; on P2RY13 (0.1μM tracer), 0.87; on P2RY13 (1μM tracer), 1.09.
Regarding `CN1CCN(C2=Nc3cc(Cl)ccc3Nc3ccc(CNC(=O)CCOCCOCCOCCOCCNC(=O)CCc4ccc5n4[B-](F)(F)[N+]4=C(c6ccc[nH]6)C=CC4=C5)cc32)CC1` [Clozapine-b-2-NB590], the “NanoBRET Fold Response” value at TBXA2R (TBXA2R, 0.1μM tracer) is on record as 0.98; at TBXA2R (TBXA2R, 1μM tracer), 1.08; at CCR9 (CCR9, 0.1μM tracer), 1.01; on CCR9 (CCR9, 1μM tracer), 0.92; at P2RY13 (P2RY13, 0.1μM tracer) it was 1.02; at P2RY13 (P2RY13, 1μM tracer), 0.99.
With `COc1ccccc1N1CCN(CCCCN2C(=O)c3ccc(CNC(=O)CCOCCNC(=O)c4ccc(CNC(=O)CCc5ccc6n5[B-](F)(F)[N+]5=C(c7ccc[nH]7)C=CC5=C6)cc4)cc3C2=O)CC1` [NAN-190-3-NB590], the “NanoBRET Fold Response” value on TBXA2R (TBXA2R, tracer 0.1μM) was 1.08; at TBXA2R (TBXA2R, tracer 1μM), 1.15; at CCR9 (CCR9, tracer 0.1μM), 1.14; at CCR9 (CCR9, tracer 1μM) it was 1.04; on P2RY13 (P2RY13, tracer 0.1μM) it was 1.02; at P2RY13 (P2RY13, tracer 1μM), 0.92.
On to `N#CN=C(NCCCOc1cccc(CN2CCCCC2)c1)NCCNC(=O)CCOCCOCCOCCOCCNC(=O)CCc1ccc2n1[B-](F)(F)[N+]1=C(c3ccc[nH]3)C=CC1=C2` [Aminopotentidine-2-NB590], for which the “NanoBRET Fold Response” value turned out to be 0.98 on TBXA2R (TBXA2R, tracer 0.1μM); 1.04 on TBXA2R (TBXA2R, tracer 1μM); 1.09 on CCR9 (CCR9, tracer 0.1μM); 1.11 on CCR9 (CCR9, tracer 1μM); 0.97 at P2RY13 (P2RY13, tracer 0.1μM); 1.02 at P2RY13 (P2RY13, tracer 1μM).
Turning to `CN(C)CCC=C1c2ccccc2CCc2ccc(C(=O)NCCNC(=O)CCOCCOCCOCCOCCNC(=O)CCc3ccc4n3[B-](F)(F)[N+]3=C(c5ccc[nH]5)C=CC3=C4)cc21` [Amitriptyline-b-2-NB590], the “NanoBRET Fold Response” value came out at 0.90 on TBXA2R (tracer at 0.1μM); 1.01 on TBXA2R (tracer at 1μM); 0.81 on CCR9 (setting [1]); 0.84 at CCR9 (setting [2]); 1.08 on P2RY13 (setting [1]); 0.96 at P2RY13 (setting [2]).
With `COc1ccccc1N1CCN(CCCCN2C(=O)c3ccc(CNC(=O)CCOCCOCCOCCOCCNC(=O)CCc4ccc5n4[B-](F)(F)[N+]4=C(c6ccc[nH]6)C=CC4=C5)cc3C2=O)CC1` [NAN-190-2-NB590], the “NanoBRET Fold Response” value on TBXA2R (TBXA2R, tracer 0.1μM) is on record as 1.07; at TBXA2R (TBXA2R, tracer 1μM), 1.06; at CCR9 (CCR9, tracer 0.1μM), 0.98; at CCR9 (CCR9, tracer 1μM), 0.99; on P2RY13 (P2RY13, tracer 0.1μM), 0.97; at P2RY13 (P2RY13, tracer 1μM) it was 1.04.
With `O=C(CCOCCOCCOCCOCCNC(=O)CCc1ccc2n1[B-](F)(F)[N+]1=C(c3ccc[nH]3)C=CC1=C2)NCCCN1CCN(C2=Nc3ccccc3Oc3ccc(Cl)cc32)CC1` [Loxapine-a-2-NB590], the “NanoBRET Fold Response” value was found to be 0.99 on TBXA2R (TBXA2R, tracer 0.1μM); 1.03 on TBXA2R (TBXA2R, tracer 1μM); 1.02 on CCR9 (CCR9, tracer 0.1μM); 0.91 at CCR9 (CCR9, tracer 1μM); 0.92 on P2RY13 (P2RY13, tracer 0.1μM); 0.96 on P2RY13 (P2RY13, tracer 1μM).
On to `CCCn1c(=O)c2[nH]c(-c3ccc(OCC(=O)NCCNC(=O)CCOCCNC(=O)c4ccc(CNC(=O)CCc5ccc6n5[B-](F)(F)[N+]5=C(c7ccc[nH]7)C=CC5=C6)cc4)cc3)nc2n(CCC)c1=O` [XAC-3-NB590], for which the “NanoBRET Fold Response” value at TBXA2R (TBXA2R, tracer 0.1μM) stood at 1.04; at TBXA2R (TBXA2R, tracer 1μM) it was 1.04; on CCR9 (CCR9, tracer 0.1μM) it was 0.95; at CCR9 (CCR9, tracer 1μM), 1.57; on P2RY13 (P2RY13, tracer 0.1μM), 1.00; at P2RY13 (P2RY13, tracer 1μM), 1.03.
Turning to `CCOC(=O)c1cc(C#N)c(N2CCC(C(=O)NS(=O)(=O)Cc3ccccc3/C=C/C(=O)NCCNC(=O)CCc3ccc4n3[B-](F)(F)[N+]3=C(c5ccc[nH]5)C=CC3=C4)CC2)nc1C` [AZD1283-1-NB590], the “NanoBRET Fold Response” value on TBXA2R (TBXA2R, 0.1μM) is on record as 1.04; on TBXA2R (TBXA2R, 1μM) it was 1.19; at CCR9 (CCR9, 0.1μM) it was 1.13; at CCR9 (CCR9, 1μM) it was 1.10; on P2RY13 (P2RY13, 0.1μM), 1.93; on P2RY13 (P2RY13, 1μM), 1.83.
